# What was measured:
# [1] = tested on: prostate cancer epithelial cells; experiment: Stromal-epithelial co-culture: PSC27 extracellular fluid on proliferation, migration, invasion of prostate cancer epithelial cells; format: cell-based, human; conditions: extracellular fluid of bleomycin-damaged PSC27 treated with TAK1 inhibitor
# Procedure: c. Experimental Treatment In Vitro • 100 nM docetaxel (DTX), 100 nM paclitaxel (PTX), 200 nM vincristine (VCR), 50 μg/ml bleomycin (BLEO), 1 μM mitoxantrone (MIT), or 10 Gy ^137CS ionizating radiation (γ-radiation at 743 rad/min, RAD) was added to the culture medium when PSC27 cells grown to 80% (PSC27-Pre) to produce cell damage. After drug treatment for 6 hours, the cells were simply washed by PBS for 3 times and kept in the culture medium for 7 to 10 days, followed by subsequent experiments. 2. Plasmid Preparation and Lentiviral Transfection • Full-length human IKKα and Flag were cloned as a fusion protein between the restriction sites BamHI and XbaI in the expression vector pCR3.1. Full-length human mTOR and GST were cloned as a fusion protein between a pair of NotI restriction sites in the expression vector pcDNA3. Packaging cell line 293FT was used for cell transfection and lentivirus production. The sequences of small hairpin RNAs (shRNAs) for knocking out TRAF6 were as follows: • 5′-[…]-3′(SEQ ID NO: 1); and • 5′-[…]-3′ (SEQ ID NO: 2). • The sequences of small hairpin RNAs (shRNAs) for knocking out TAK1 were as follows: • 5′-[…]-3′(SEQ ID NO: 3); and • 5′-[…]-3′(SEQ ID NO: 4). • The sequences of small hairpin RNAs (shRNAs) for knocking out IL-1α were as follows: • 5′-[…]-3′(SEQ ID NO: 5); and • 5′-[…]-3′ (SEQ ID NO: 6). 3. Immunofluorescence and Histochemical Analysis • Mouse monoclonal antibody anti-phospho-Histone H2A.X (Ser139) (clone JBW301, Millipore) or mouse monoclonal antibody anti-Phosphor-53BP1 (Cat #sc-135748, Santa Cruz), and secondary antibody Alexa Fluor® 488 (or 594)-conjugated F(ab′)2 were added sequentially to slides on which cells were fixed. […] FV1000 laser scanning confocal microscopy (Olympus) was used to obtain cellular confocal fluorescence images to determine the extent of DNA damage. • Antibody anti-TAK1 used for histological IHC staining in clinical prostate, non-small cell lung cancer patients and breast cancer patients, was purchased from Proteintech, idib. […] Quantitative PCR for Measuring Gene Expression […]
# [2] = tested on: prostate-derived stromal cell line PSC27 and epithelial cancer cell line PC3 xenograft tumors; experiment: Preclinical chemotherapy trial, subcutaneous PC3/PSC27 tissue-recombinant tumors, terminal tumor volume; format: in vivo, ICR-SCID mice
# Procedure: All experimental mouse experiments were carried out in strict accordance with the relevant regulations of the Institutional animal care and use committee (IACUC) of the shanghai Institute of Life Sciences of the Chinese Academy of Sciences. ICR-SCID mice at an age of about 6 weeks (about 25 g in body weight) were used in this patent-related animal experiment. Stromal cells PSC27 and epithelial cells were mixed at a ratio of 1:4, with each implant containing 1.25×10^6 cells for tissue recombination. The transplant tumor was implanted into mice subcutaneously, and the animals were euthanized at the end of Week 8 after transplantation. The tumor volume was calculated according to the following formula: V=(π/6)×((l+w)/2)^3 (V, volume; l, length; w, width). Similarly, lung and breast cancer xenograft tumors were formed by tissue recombination with A549 (non-small cell lung cancer cell line) and W138 (lung fibroblast line), MDA-MB-231 (triple negative breast cancer cell line) and HBF1203 (breast fibroblast line), respectively.
# In the preclinical chemotherapy trial, mice subcutaneously transplanted with tumors were fed standard experimental diet. After 2 weeks, the chemotherapeutics mitoxantrone (dose of 0.2 mg/kg) and/or SASP inhibitors (500 μl, dose of 10 mg/kg, RAD001, SB203580 and 5Z-7 were purchased from Tocris; LYTAK, purchased from Lilly Co ((Indianapolis, Ind.), 5 mg/kg) were administrated intraperitoneally. The timepoint was the first day of Week 3, 5, 7, and the whole course of treatment was composed of three cycles of administration, each cycle lasted for 2 weeks. After the course of treatment, mouse […] was collected for tumor measurement and histological analysis. Each mouse received cumulatively 0.6 mg mitoxantrone/kg body weight and 30 mg SASP inhibitor/kg body (15 mg/kg body weight for LYTAK1). Mice xenografted with lung cancer and breast cancer tumor received bleomycin (totally 0.3 mg/kg) and doxorubicin (totally 0.2 mg/kg), respectively. The timepoints and frequency were same as the administration of mitoxantrone. The chemotherapeutic trial was performed until the end of Week 8, and the mice were dissected immediately after death. The transplant tumors were collected and used for analysis in a pathological system.
# In order to simulate clinical conditions as much as possible, the present inventor inoculated the subcutaneous site of immunodeficient mice with an admixture of prostate-derived stromal cell line PSC27 and epithelial cancer cell line PC3. The mice subsequently underwent a regimen of 8-week preclinical chemotherapy, which included three single- or double-drug treatments based on a series of pre-experimental data (FIGS. 64 and 65). In the absence of stromal cells, PC3 cells were still able to form tumors under screening pressure caused by chemotherapeutics, though their volumes were smaller than that generated in the case of concurrent inoculation of stromal cells and cancer cells. Such difference also objectively confirmed the tumor-promoting effect of the microenvironment (FIG. 66).
smiles,measurement,setting,value
"COc1cc(O)c2c(c1)/C=C/C[C@H](O)[C@H](O)C(=O)/C=C\C[C@H](C)OC2=O [5Z-7, 5z-7-oxozeaenol]",in vitro migration of prostate cancer epithelial cells promoted by stromal cell extracellular fluid,[1],significantly reduced
same,invasion of prostate cancer epithelial cells promoted by stromal cell extracellular fluid,[1],significantly weakened
same,proliferation of prostate cancer epithelial cells promoted by stromal cell extracellular fluid,[1],decreased significantly
same,effect on tumor growth,[2]; TAK1 inhibitor alone,does not appear to alter tumor growth trends
same,further decrease in terminal tumor volume,"[2]; inhibitor combined with mitoxantrone (MIT) vs mitoxantrone alone (group 8 vs group 6), end of Week 8",60%
